Data taken from PMC9283524 (Nature Communications, 2022).

How the values were obtained:
turkey β1-AR L101^2.64A = turkey β1-AR L101^2.64A (Meleagris gallopavo, UniProt P07700, L101A); assay: cell-based
Method: (§1) CHO cells (transfected with a control empty vector or wild-type or mutant turkey β1-AR) were plated onto six-well plates, and were pre-incubated with culture medium buffered with 0.5 mM IBMX for 30 min at 37 °C[20]. […] After culture medium removal, cells were treated with 0.1 M HCl for 10 minutes at room temperature. After centrifugation, the supernatant was used for cAMP quantification using the Direct Cyclic AMP Enzyme Immunoassay kit (Enzo Life Sciences). […] The cAMP assays were repeated three times, and the data are represented as mean ± SD of the three independent experiments. The analysis was done using the log(agonist) vs. response function of Prism 8 (GraphPad)[20].

turkey β1-AR T203^ECL2A = turkey β1-AR T203^ECL2A (Meleagris gallopavo, UniProt P07700, T203A); assay: cell-based
Method: as §1

turkey β1-AR V326^7.36A = turkey β1-AR V326^7.36A (Meleagris gallopavo, UniProt P07700, V326A); assay: cell-based
Method: as §1

[1] = tested on: β1-AR mutants of residues that interact with Gs; assay: cAMP assay, dose-response, summary over mutants of Gs-interacting residues; format: cell-based, turkey; conditions: range over mutants, Fig. 5c,d
wild-type turkey β1-AR = wild-type turkey β1-AR (Meleagris gallopavo, UniProt P07700); conditions: cited from earlier work
[2] = CHO, 5 min, read-out: Efficacy (% of max cAMP level)

Chain of turkey β1-AR T203^ECL2A (P07700 whole entry T203A): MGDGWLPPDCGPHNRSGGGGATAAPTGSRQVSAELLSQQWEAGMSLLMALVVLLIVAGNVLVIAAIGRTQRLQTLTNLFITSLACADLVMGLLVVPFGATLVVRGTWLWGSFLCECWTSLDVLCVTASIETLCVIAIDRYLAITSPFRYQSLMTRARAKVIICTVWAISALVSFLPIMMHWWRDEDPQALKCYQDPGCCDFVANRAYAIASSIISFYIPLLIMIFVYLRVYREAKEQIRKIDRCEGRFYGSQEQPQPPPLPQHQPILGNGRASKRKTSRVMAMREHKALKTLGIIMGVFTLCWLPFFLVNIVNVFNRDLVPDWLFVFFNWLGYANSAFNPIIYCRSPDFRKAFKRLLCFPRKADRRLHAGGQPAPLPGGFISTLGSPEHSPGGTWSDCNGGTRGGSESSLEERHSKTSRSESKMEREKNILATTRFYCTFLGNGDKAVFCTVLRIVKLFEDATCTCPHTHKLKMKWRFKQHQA
Chain of turkey β1-AR L101^2.64A (P07700 whole entry L101A): as the sequence (P07700 whole entry T203A) above, with L101A, A203T counted along it
Chain of turkey β1-AR V326^7.36A (P07700 whole entry V326A): as the sequence (P07700 whole entry T203A) above, with A203T, V326A counted along it
Chain of wild-type turkey β1-AR (P07700 whole entry): as the sequence (P07700 whole entry T203A) above, with A203T counted along it

Compound: CC(CCc1ccc(O)cc1)NCCc1ccc(O)c(O)c1 (stereo not drawn) [Dobutamine, dobutamine]
- EC50 (turkey β1-AR L101^2.64A): 6.61 µM
- Emax (turkey β1-AR L101^2.64A; [2]): 37 ± 1.1%
- EC50 (turkey β1-AR T203^ECL2A): 1.58 µM
- Emax (turkey β1-AR T203^ECL2A; [2]): 99 ± 0.7%
- EC50 (turkey β1-AR V326^7.36A): 7.59 µM
- Emax (turkey β1-AR V326^7.36A; [2]): 38 ± 1.2%
- change of EC50 by β1-AR mutations [1]: 2 to 7 fold
- reduction of the cAMP response by β1-AR mutations [1]: 17–44%
- ligand efficacy class (wild-type turkey β1-AR): partial agonist
